The record followed here is patent US20010034330A1, “Innate immunity-stimulating compositions of CpG and saponin and methods thereof” (priority 1998, published 2001).

One assay concerns YAC-1 cells. As to the kind of experiment: Natural killer cell activity: 51Cr release lysis of YAC-1 target cells by splenocytes of treated mice. Format: in vivo, Balb/c mice. Particulars: for NK cell response (lysis of YAC-1 cells): Example 1, FIG. 1, 10 ug each, subcutaneous, days 1 and 2; for NK cell response (lysis of YAC-1 cells) / NK activity, dose response: splenocytes day 3; for NK cell activity compared with QS-7 at an equivalent dose / NK activity, dose response: Example 3, FIG. 3, 3, 10, 30 ug s.c. day 1 and day 2. The procedure: Assessment of natural killer cell activity was carried out by an adaptation of a published method (Hashimoto et al., J. Immunol. 163: 583 (1999)). Balb/c mice (4 per group, female, 8-10 weeks of age) were administered one of five different candidate compositions at days 1 and 2. The compositions evaluated were (1) saline (negative control), (2) 10 ug QS-21, (3) 10 ug CpG (sequence 1826), (4) 0.5 ug murine IL-12 (positive control for NK cell activation), and (5) a combination of 10 ug QS-21 and 10 ug CpG in 0.2 ml saline. All test compositions were administered subcutaneously except for murine IL-12, which was administered intraperitoneally. Splenocytes were removed from the mice at day 3 for use as effector cells in the natural killer cell assay. Such cells were immediately used in a standard ^51Cr release lysis assay. YAC-1 cells (loaded with ^51Cr) were used as target cells. The lysis of this NK cell-sensitive line is indicative of NK cell activation in the splenocyte population.
The time dependence of the administration of CpG/QS-21 on natural killer cell activation was investigated. Balb/c mice (5 per group, female, 8-10 weeks of age) were administered a mixture of 10 ug QS-21 and 10 ug CpG sequence 1826 in a total volume of 0.2 ml by subcutaneous route seven days before (−7d), three days before (−3d), two days before (−2d), and one day before (−1d) assay of natural killer cell activity. Splenocytes were removed from the mice at day 0 for use as effector cells in the natural killer cell assay. YAC-1 cells (loaded with ^51Cr) were used as target cells. Natural killer cell lysis was apparent if the formulation of QS-21/CpG was administered one, two, or three days prior to the assay, but not if the formulation was administered seven days prior to the assay (FIG. 2). This confirms the transient nature of the natural killer cell activity.
Balb/c mice (5 per group, female, 8-10 weeks of age) were administered individually QS-7, QS-21, or CpG sequence 1826 at three different dose levels (3, 10, 30 ug) to determine a dose response curve for these individual compounds. The compositions evaluated were (1) saline (negative control), (2) 3 ug QS-21, (3) 10 ug QS-21, (4) 30 ug QS-21, (5) 3 ug QS-7(6) 10 ug QS-7, (7) 30 ug QS-7, (8) 3 ug sequence CpG 1826, (9) 10 ug CpG sequence 1826, and (10) 30 ug CpG sequence 1826. All test compositions were administered subcutaneously at day 1 and day 2. Splenocytes were removed from the mice at day 3 for use as effector cells in the natural killer cell assay. YAC-1 cells (loaded with ^51Cr) were used as target cells.
This experiment evaluated the natural killer cell stimulating activity induced by various formulations: (1) QS-21 (10 ug), (2) QS-7 (10 ug), (3) CpG sequence 1826 (10 ug), (4) CpG sequence 2006 (10 ug), (5) QS-21 (10 ug)+CpG sequence 1826 (10 ug), (6) QS-21 (10 ug)+CpG 2006 (10 ug), (7) QS-7 (10 ug)+CpG sequence 1826 ( […]), (8) QS-7 (10 ug) +CpG sequence 2006 (10 ug), (9) QS-7 (10 ug) and QS-21 (10 ug) and (10) saline. Balb/c mice (5 per group, female, 8-10 weeks of age) were administered the above formulations by subcutaneous route on day 1 and day 2. Splenocytes were removed from the mice at day 3 for use as effector cells in the natural killer cell assay. YAC-1 cells (loaded with ^51Cr) were used as target cells.

The subject of assay [1] is Listeria monocytogenes strain 10403s. The experiment in a line: Listeria monocytogenes challenge model (spleen colony counts). The assay is classed as in vivo, Balb/c mice. Particulars: Example 5, FIG. 5; given day 0, i.p. challenge with 10^5 colonies day 3, spleens 96 hours after challenge; versus saline, p<0.05 for the two lowest groups. The procedure:
Balb/mice (5 per group, female, 8-10 weeks of age) were administered the following formulations on day 0: Group 1: saline, subcutaneous route. Group 2: 10 ug QS-21 and 10 ug of CpG sequence 1826, subcutaneous route. Group 3: 10 ug QS-21, subcutaneous route. Group 4: 10 ug CpG sequence 1826, subcutaneous route. Group 5: 0.5 ug recombinant murine IL-12, intraperitoneal route. A total volume of 0.2 ml was administered. On day 3, mice were challenged by the intraperitoneal route with 10^5 colonies of Listeria monocytogenes strain 10403s. Spleens were removed at 96 hours after challenge, homogenized, and then cultured in serial 10-fold dilutions overnight on agar plates. Listeria monocytogenes colonies were counted, the number of organisms per spleen determined, and then the geometric mean and standard error were determined for each group. A two-tailed, paired student's t-test of the log10 colonies/spleen was used to show statistical significance.

For the substance QS-21, in the assay with YAC-1 cells, the “NK cell response (lysis of YAC-1 cells)” value is “higher than CpG and that was nearly equivalent to the positive control, murine IL-12”; the “NK cell activity compared with QS-7 at an equivalent dose” value was “higher than that induced by QS-7”; the “NK activity, dose response” value was “enhance NK activity in a dose dependent fashion”. In addition, the “Listeria monocytogenes colony count in spleen” value in assay [1] is recorded as “lowest colony counts”.
For “TCCATGACGTTCCTGACGTT [CpG sequence 1826]”, in the assay with YAC-1 cells, the “NK cell response (lysis of YAC-1 cells)” value was “slightly enhanced the NK cell activity”; the “NK cell activity compared with QS-7 at an equivalent dose” value is “higher than that induced by QS-7”; the “NK activity, dose response” value is “enhance NK activity in a dose dependent fashion”.
